Test in all cases: growth of human tumour cells (NCI), 48 h
In assay [1] the test system is OVCAR-8 ovarian.
Assay [2] relates to UO-31 renal.
Assay [3] relates to HCC-2998 colon.
In assay [4] the test system is M14 melanoma.
The subject of assay [5] is SNB-19 CNS.
Assay [6] relates to MALME-3M melanoma.
Assay [7] relates to DU-145 prostate.
The test system of assay [8] is TK-10 renal.
Assay [9] concerns NCI-H226 lung.
Assay [10] has as its system SW-620 colon.

Drawing on PubChem BioAssay (NCI), this text covers GI50 and TGI for seven compounds.

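Assay format: 96-well plates, 48-hour exposure. GI50: concentration for 50% inhibition of growth. TGI: concentration producing complete growth inhibition.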

Regarding `COc1cc(/C=C2\C(=O)Nc3ccc(Br)cc32)cc(OC)c1OC`, the GI50 is 34.3 µM in assay [1]; 6.73 µM in assay [2]; 57.4 µM in [3]; 15.7 µM in [4]; 29.8 µM in assay [5]; 0.606 µM in assay [6]. In addition, the GI50 in assay [7] is 18.7 µM; in assay [8] it was 4.65 µM; in assay [9], 60.9 µM; in [10] it was 3.74 µM. The TGI in assay [1] was more than 100 µM; in [2] it was more than 100 µM; in assay [3], more than 100 µM; in [4], more than 100 µM; in assay [5] it was more than 100 µM; in [6], 16.8 µM. Besides, the TGI in assay [7] was more than 100 µM; in [8], 30.1 µM; in assay [9], more than 100 µM; in assay [10], more than 100 µM.

With `Fc1ccc(-c2cc(-c3cn[nH]c3-c3ccccn3)ccn2)cc1`, the GI50 in assay [1] was more than 25 µM; in assay [2], more than 25 µM; in assay [3], more than 25 µM; in assay [4] it was more than 17 µM; in assay [5] it was more than 25 µM; in [6], more than 25 µM. For the same compound, the GI50 in [7], in assay [8], in assay [9] and in [10] was more than 25 µM in each case. For the same compound, the TGI in assay [1], in [2], in assay [3], in assay [4], in assay [5] and in assay [6] was more than 25 µM in each case. The TGI in [7], in assay [8], in assay [9] and in assay [10] was more than 25 µM in each case.

As to `Cc1ccc2c(C(C[N+](=O)[O-])c3ccco3)c(-c3ccccc3)[nH]c2c1` (stereo not given), the GI50 in assay [1] was 84.8 µM; in assay [2] it was 33.1 µM; in assay [3], more than 100 µM; in assay [4] it was 12.2 µM; in assay [5], 59 µM; in assay [6], 21.8 µM. In addition, the GI50 is 74.4 µM in assay [7], 12.3 µM in assay [8], more than 100 µM in [9] and 11.4 µM in [10]. Besides, the TGI in [1], in assay [2], in assay [3], in assay [4], in assay [5] and in assay [6] was more than 100 µM each time. Moreover, the TGI in assay [7], in assay [8], in [9] and in assay [10] was more than 100 µM in each case.

Consider `CNc1ccc(N=Nc2cccc3ncccc23)cc1`, for which the GI50 was 98.1 µM in assay [1]; 0.89 µM in assay [2]; 33.5 µM in [3]; 44.3 µM in [4]; more than 80.6 µM in [5]; more than 58.4 µM in assay [6]. Besides, the GI50 in assay [7] was more than 100 µM; in [8], more than 100 µM; in assay [9], more than 100 µM; in assay [10], 37.1 µM. Besides, the TGI in [1], in [2], in assay [3], in assay [4], in [5] and in [6] was more than 100 µM each time. The TGI in assay [7], in [8], in assay [9] and in [10] was more than 100 µM each time.

On to `COc1ccc2c(c1)c(-c1cc(-c3cn(C)c4ccc(OC)cc34)[nH]n1)cn2C`, for which the GI50 in assay [1], in assay [2], in [3], in [4], in assay [5] and in [6] was more than 100 µM each time. Further, the GI50 in [7], in assay [8], in assay [9] and in assay [10] was more than 100 µM each time. Besides, the TGI in assay [1], in assay [2], in assay [3], in [4], in [5] and in assay [6] was more than 100 µM throughout. Besides, the TGI in assay [7], in [8], in assay [9] and in assay [10] was more than 100 µM throughout.

In the case of `COc1cccc(C2CC(=O)Nc3cc4c(cc32)CCC4)c1OC` (stereo not given), the GI50 in [1] is 3.67 µM; in assay [2], 7.18 µM; in assay [3], 7.56 µM; in assay [4], 2.59 µM; in assay [5] it was 8.66 µM; in assay [6], 5.98 µM. Also, the GI50 in assay [7] was 3.48 µM; in assay [8], 12.4 µM; in assay [9] it was 9.7 µM; in [10] it was 3.11 µM. The TGI was 31.9 µM in assay [1]; 38.7 µM in assay [2]; 28.1 µM in assay [3]; 8.94 µM in [4]; more than 100 µM in assay [5]; 36 µM in [6]. Besides, the TGI in assay [7] is 16.1 µM; in [8], more than 100 µM; in assay [9], 44.2 µM; in assay [10], more than 46.2 µM.

On to `CCn1c(-c2nonc2N)nc2c(C#CC(C)(C)O)ncc(OC[C@@H]3CCCN3)c21`, for which the GI50 was 6.4 µM in assay [1]; 13.4 µM in [2]; 3.12 µM in assay [3]; 6.95 µM in assay [4]; 4.28 µM in [5]; more than 15.3 µM in assay [6]. The GI50 was 4.76 µM in assay [7], 1.83 µM in assay [8], 8.27 µM in [9] and 6.84 µM in assay [10]. In addition, the TGI in assay [1], in [2], in [3], in assay [4], in assay [5] and in [6] was more than 25 µM in each case. Further, the TGI in assay [7] is more than 22.9 µM; in [8], more than 21.8 µM; in assay [9], more than 24 µM; in [10], more than 25 µM.
